Assay results published in patent publication US20170304388A1, “NEW INDICATION OF CARDIOVASCULAR DRUGS FOR PREPARATION OF CANCER INHIBITION PHARMACEUTICAL COMPOSITION” (LAUNX BIOMEDICAL CO., LTD., priority 2014, published 2017).
Structures can show the parent of a compound that is named as a salt.

What was measured:
Format in all cases: cell-based
[1] = system: A375 (Amelanotic Melanoma); assay: Cell viability analysis (WST-1), A375; conditions: WST-1, OD450 nm, lower viability = better inhibition; for viability at 10 µM: Homo sapiens, A-375, 72 h, Table 3, drug 10 μM, read-out: survival rate (viability) of cancer cells, A375; for survival rate (viability) of cancer cells, A375: Table 3, drug 10 μM, 72 hours
[2] = system: MKN-45 (Gastric Adenocarcinoma); assay: Cell viability analysis (WST-1), MKN-45; conditions: WST-1, OD450 nm; for viability at 10 µM: Homo sapiens, MKN-45, 72 h, Table 3, drug 10 μM, read-out: survival rate (viability) of cancer cells, MKN-45
[3] = system: A549 (Lung Adenocarcinoma); assay: Cell viability analysis (WST-1), A549; conditions: WST-1, OD450 nm; for viability at 10 µM: Homo sapiens, A549, 72 h, Table 3, drug 10 μM, read-out: survival rate (viability) of cancer cells, A549
[4] = system: HeLa (Cervix Adenocarcinoma); assay: Cell viability analysis (WST-1), HeLa; conditions: Homo sapiens, HeLa, 72 h, Table 3, drug 10 μM, WST-1, OD450 nm, read-out: survival rate (viability) of cancer cells, HeLa
[5] = system: HCT116 (Colorectal Carcinoma); assay: Cell viability analysis (WST-1), HCT116; conditions: WST-1, OD450 nm; for viability at 10 µM: Homo sapiens, HCT-116, 72 h, Table 3, drug 10 μM, read-out: survival rate (viability) of cancer cells, HCT116 (WT); for survival rate (viability) of cancer cells, HCT116 (WT): Table 3, drug 10 μM, 72 hours
[6] = system: TSGH-8301 (Urinary Bladder Carcinoma); assay: Cell viability analysis (WST-1), TSGH-8301; conditions: WST-1, OD450 nm; for viability at 10 µM: 72 h, Table 3, drug 10 μM, read-out: survival rate (viability) of cancer cells, TSGH; for survival rate (viability) of cancer cells, TSGH: Table 3, drug 10 μM, 72 hours
cancer cell lines = assay: Growth inhibitory effects on the panel of cancer cell lines; conditions: drug 10 μM, 72 hours; for Numbers of inhibitory effect on cancer cell line: count of cancer cell lines inhibited; for inhibition effect on different cancer cell lines (in words): WST-1
[7] = system: AGS (Gastric Adenocarcinoma); assay: Cell viability analysis (WST-1), AGS; conditions: WST-1, OD450 nm; for viability at 10 µM: 72 h, Table 3, drug 10 μM, read-out: survival rate (viability) of cancer cells, AGS
[8] = system: PC3 (Prostate Adenocarcinoma); assay: Cell viability analysis (WST-1), PC3; conditions: WST-1, OD450 nm; for viability at 10 µM: 72 h, Table 3, drug 10 μM, read-out: survival rate (viability) of cancer cells, PC3
[9] = system: MCF7 (Mammary Gland, Adenocarcinoma); assay: Cell viability analysis (WST-1), MCF7; conditions: WST-1, OD450 nm; for viability at 10 µM: Homo sapiens, MCF7, 72 h, Table 3, drug 10 μM, read-out: survival rate (viability) of cancer cells, MCF7
[10] = system: LoVo (Colorectal Adenocarcinoma); assay: Cell viability analysis (WST-1), LoVo; conditions: WST-1, OD450 nm; for viability at 10 µM: Homo sapiens, LoVo, 72 h, Table 3, drug 10 μM, read-out: survival rate (viability) of cancer cells, LoVo
[11] = system: HL-60 (Acute Promyelocytic Leukemia); assay: Cell viability analysis (WST-1), HL-60; conditions: Table 3, drug 10 μM, 72 hours, WST-1, OD450 nm; for viability at 10 µM: Homo sapiens, HL-60, read-out: survival rate (viability) of cancer cells, HL-60
[12] = system: HepG2 (Hepatocellular Carcinoma); assay: Cell viability analysis (WST-1), HepG2; conditions: WST-1, OD450 nm; for viability at 10 µM: Homo sapiens, HepG2, 72 h, Table 3, drug 10 μM, read-out: survival rate (viability) of cancer cells, HepG2
[13] = system: H1650 (Lung Adenocarcinoma); assay: Cell viability analysis (WST-1), H1650; conditions: WST-1, OD450 nm; for viability at 10 µM: Homo sapiens, NCI-H1650, 72 h, Table 3, drug 10 μM, read-out: survival rate (viability) of cancer cells, H1650

Compound	viability at 10 µM [1]	viability at 10 µM [2]	viability at 10 µM [4]	viability at 10 µM [5]	viability at 10 µM [6]	Numbers of inhibitory effect on cancer cell line (cancer cell lines)	inhibition effect on different cancer cell lines (in words) (cancer cell lines)	viability at 10 µM [7]	viability at 10 µM [9]	other results
NC(=O)c1ncn([C@@H]2O[C@H](CO)[C@@H](O)[C@H]2O)c1N [Acadesine]	99.1%	81.5%	88.4%	88.7%	99.7%	0	significant inhibition effect	75.4%	84.7%	viability at 10 µM [3]: 117%; viability at 10 µM [8]: 94.8%; viability at 10 µM [10]: 80.9%; viability at 10 µM [11]: 110%; viability at 10 µM [12]: 103%
NCCCCCC(=O)O [Aminocaproic acid (Amicar), Aminocaproic acid]	123%	80.2%	90.4%	114%	71.4%	0		64.8%	69.2%	viability at 10 µM [3]: 70.3%; viability at 10 µM [8]: 79.6%; viability at 10 µM [13]: 65.4%; viability at 10 µM [10]: 91.2%; viability at 10 µM [11]: 93%
CC(C)OC(=O)C(C)(C)Oc1ccc(C(=O)c2ccc(Cl)cc2)cc1 [Fenofibrate (Tricor, Trilipix), Fenofibrate]	159%	83.1%	98.3%	98.9%	103%			84.1%	78.1%	viability at 10 µM [8]: 105%; viability at 10 µM [13]: 122%; viability at 10 µM [11]: 77.6%; viability at 10 µM [12]: 104%
CC1Cc2ccccc2N1NC(=O)c1ccc(Cl)c(S(N)(=O)=O)c1 (centres unmarked) [Indapamide (Lozol), Indapamide]	64.8%	105%	67.9%	80%	85%	0	significant inhibition effect	109%	65.5%	viability at 10 µM [3]: 106%; viability at 10 µM [8]: 76.8%; viability at 10 µM [13]: 86.7%; viability at 10 µM [10]: 92.7%; viability at 10 µM [12]: 84%
CCC(NC(C)C)C(O)c1ccc(O)c(O)c1 (centres unmarked) [Isoetharine Mesylate]	97%	91%	81.6%	96.1%	88.3%	0	significant inhibition effect	96.6%	103%	viability at 10 µM [3]: 76.7%; viability at 10 µM [8]: 71.6%; viability at 10 µM [13]: 91.7%; viability at 10 µM [10]: 100%; viability at 10 µM [12]: 76.5%
Cc1cccc(Nc2ccccc2C(=O)O)c1C [Mefenamic acid]	78.7%	115%	76.1%	85.9%	118%	0	significant inhibition effect	71.1%	95.3%	viability at 10 µM [3]: 116%; viability at 10 µM [8]: 103%; viability at 10 µM [13]: 73.9%; viability at 10 µM [10]: 83.3%; viability at 10 µM [11]: 113%
O=C(O)/C=C/c1ccc(Cn2ccnc2)cc1 [Ozagrel]	74.7%	93.9%	77.7%	102%	69.4%	0	significant inhibition effect	98.5%	102%	viability at 10 µM [3]: 77.7%; viability at 10 µM [13]: 80.6%; viability at 10 µM [10]: 80.6%; viability at 10 µM [11]: 118%; viability at 10 µM [12]: 91.2%
COc1ccc([C@H]2CNC(=O)C2)cc1OC1CCCC1 [S-(+)-Rolipram]						0	significant inhibition effect			survival rate (viability) of cancer cells, A375 [1]: 77.0; survival rate (viability) of cancer cells, HCT116 (WT) [5]: 86.2; survival rate (viability) of cancer cells, TSGH [6]: 81.1; survival rate (viability) of cancer cells, PC3 ([8]; Table 3, drug 10 μM, 72 hours): 89.3; survival rate (viability) of cancer cells, MCF7 ([9]; Table 3, drug 10 μM, 72 hours): 80.4; survival rate (viability) of cancer cells, LoVo ([10]; Table 3, drug 10 μM, 72 hours): 94.1; survival rate (viability) of cancer cells, HL-60 [11]: 107.3; survival rate (viability) of cancer cells, HepG2 ([12]; Table 3, drug 10 μM, 72 hours): 90.4
CN[C@@H]1[C@H](O)[C@H](NC)[C@H]2O[C@@]3(O)C(=O)C[C@@H](C)O[C@H]3O[C@@H]2[C@H]1O [Spectinomycin hydrochloride]							significant inhibition effect			
CCOCC(O)COc1ccc(NC(=O)CC[S+](C)C)cc1 (centres unmarked) [Suplatast tosylate]							significant inhibition effect			
CCCc1nc2c(C)cc(-c3nc4ccccc4n3C)cc2n1Cc1ccc(-c2ccccc2C(=O)O)cc1 [Telmisartan (Micardis), Telmisartan]							significant inhibition effect			
CS(=O)(=O)c1ccc([C@@H](O)[C@@H](CO)NC(=O)C(Cl)Cl)cc1 [Thiamphenicol (Thiophenicol), Thiamphenicol]							significant inhibition effect			
CC(S)C(=O)NCC(=O)O (centres unmarked) [Tiopronin (Thiola), Tiopronin]							significant inhibition effect			
Cc1cccc(Nc2ccncc2S(=O)(=O)NC(=O)NC(C)C)c1 [Torsemide (Demadex), Torsemide]							significant inhibition effect			
O=C(O[C@H]1C[C@H]2CC[C@@H](C1)[N+]21CCCC1)C(O)(c1ccccc1)c1ccccc1 [Trospium chloride (Sanctura), Trospium chloride]							significant inhibition effect			
CCCC(CCC)C(=O)[O-].[Na+] [Valproic acid sodium salt]							significant inhibition effect			
CCCCC(=O)N(Cc1ccc(-c2ccccc2-c2nnn[nH]2)cc1)[C@H](C(=O)O)C(C)C [Valsartan (Diovan), Valsartan]							significant inhibition effect			
C=C1CC[C@H](O)C/C1=C/C=C1\CCC[C@]2(C)[C@@H]([C@H](C)CCCC(C)C)CC[C@@H]12 [Vitamin D3 (Cholecalciferol), Cholecalciferol]							significant inhibition effect			
Cc1cn([C@H]2C[C@H](N=[N+]=[N-])[C@@H](CO)O2)c(=O)[nH]c1=O [Zidovudine (Retrovir), Zidovudine]							significant inhibition effect			
COCCc1ccc(OCC(O)CNC(C)C)cc1 (centres unmarked) [toprolol tartrate]							significant inhibition effect			
Almotriptan malate [Almotriptan malate (Axert)]							significant inhibition effect			
Gabexate mesylate						0	significant inhibition effect			survival rate (viability) of cancer cells, A375 [1]: 77.9; survival rate (viability) of cancer cells, MKN-45 ([2]; Table 3, drug 10 μM, 72 hours): 81.1; survival rate (viability) of cancer cells, A549 ([3]; Table 3, drug 10 μM, 72 hours): 77.3; survival rate (viability) of cancer cells, HCT116 (WT) [5]: 114.9; survival rate (viability) of cancer cells, TSGH [6]: 70.9; survival rate (viability) of cancer cells, AGS ([7]; Table 3, drug 10 μM, 72 hours): 75.0; survival rate (viability) of cancer cells, H1650 ([13]; Table 3, drug 10 μM, 72 hours): 69.8; survival rate (viability) of cancer cells, HL-60 [11]: 117.6
Ibutilide fumarate							significant inhibition effect			
